We go through 24 compounds from patent publication US9493396B2, “Substituted naphthalene compounds as calcium sensing receptor modulators” (LUPIN ATLANTIS HOLDINGS SA, priority 2013, dated 2016).

Where a name gives a salt, the structure may show the parent alone.

In the experiment the target is T1, Calcium sensing receptor (hCaSR) (Homo sapiens, UniProt P41180).
T1 construct: expressed in transfected cells; host or cells: HEK293 (stably transfected)
T1 sequence (P41180 20-1078): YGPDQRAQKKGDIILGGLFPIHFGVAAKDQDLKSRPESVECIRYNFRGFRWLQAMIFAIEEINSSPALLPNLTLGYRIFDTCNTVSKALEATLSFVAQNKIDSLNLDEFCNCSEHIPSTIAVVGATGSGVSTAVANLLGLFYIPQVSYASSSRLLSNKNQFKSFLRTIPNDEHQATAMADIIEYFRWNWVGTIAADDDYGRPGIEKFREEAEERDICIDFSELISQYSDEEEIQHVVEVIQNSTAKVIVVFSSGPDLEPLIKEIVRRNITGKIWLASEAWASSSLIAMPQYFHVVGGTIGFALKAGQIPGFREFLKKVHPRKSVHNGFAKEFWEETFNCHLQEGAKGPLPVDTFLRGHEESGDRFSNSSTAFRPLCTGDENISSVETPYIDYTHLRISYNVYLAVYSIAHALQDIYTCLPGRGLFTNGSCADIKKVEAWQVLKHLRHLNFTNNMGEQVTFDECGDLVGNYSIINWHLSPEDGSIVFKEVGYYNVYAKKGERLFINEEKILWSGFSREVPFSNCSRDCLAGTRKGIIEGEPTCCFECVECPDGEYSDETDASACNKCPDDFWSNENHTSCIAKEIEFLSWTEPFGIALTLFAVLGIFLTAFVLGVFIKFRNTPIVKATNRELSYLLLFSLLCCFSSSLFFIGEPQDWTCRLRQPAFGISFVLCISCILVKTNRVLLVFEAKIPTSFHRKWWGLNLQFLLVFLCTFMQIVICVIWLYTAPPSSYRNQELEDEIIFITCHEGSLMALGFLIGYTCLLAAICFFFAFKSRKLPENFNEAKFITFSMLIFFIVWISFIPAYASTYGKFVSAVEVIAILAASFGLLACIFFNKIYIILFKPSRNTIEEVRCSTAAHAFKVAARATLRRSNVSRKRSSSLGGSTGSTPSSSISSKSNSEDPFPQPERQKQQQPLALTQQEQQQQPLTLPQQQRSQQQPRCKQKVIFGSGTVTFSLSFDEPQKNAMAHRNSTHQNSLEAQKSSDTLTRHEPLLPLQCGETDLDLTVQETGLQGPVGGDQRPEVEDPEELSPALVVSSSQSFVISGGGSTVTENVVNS
Briefly: In-vitro assay of calcimimetics through modulation of calcium sensing receptor (intracellular calcium increase, FLIPR). Format: cell-based. As to conditions: stably transfected HEK293 cells expressing hCaSR; Fluo4NW dye; 0.3 mM CaCl2; 8-point assay; read-out: EC50 in range. Put shortly:
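Stably transfected HEK293 cells expressing hCaSR, loaded 30 min with Fluo4NW dye. Intracellular calcium rise measured on FLIPR in 20 mM HEPES buffer with 0.3 mM CaCl2. EC50 derived from 8-point concentration series.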
On the technique in general: Calcium assays in cells follow changes in intracellular calcium, usually with a dye or a luminescent sensor.
As usually defined, the EC50 is the midpoint of the concentration-response curve. In the case of `COc1cccc([C@@H](C)NC(C)c2cc(-c3ccc(CCC(=O)O)c(F)c3)c3ccccc3c2)c1` (stereo partly drawn) [Example 136, 3-(2-Fluoro-4-(3-(1-(((R)-1-(3-methoxyphenyl)ethyl)amino)ethyl)naphthalen-1-yl)phenyl) propanoic acid hydrochloride], the EC50 fell in the range of 20 to 50 nM. Regarding `COc1cccc([C@@H](C)NC(C)c2cc(-c3ccc(C)c(CCC(=O)O)c3)c3ccccc3c2)c1` (stereo partly drawn) [Example 137, 3-(5-(3-(1-(((R)-1-(3-Methoxyphenyl)ethyl)amino)ethyl)naphthalen-1-yl)-2-methylphenyl) propanoic acid hydrochloride], the EC50 is below 20 nM. In the case of `COc1cccc([C@@H](C)NC(C)c2cc(-c3ccc(C(C)(C)C(=O)O)cc3)c3ccccc3c2)c1` (stereo partly drawn) [Example 138, 2-(4-(3-(1-(((R)-1-(3-Methoxyphenyl)ethyl)amino)ethyl)naphthalen-1-yl)phenyl)-2-methylpropanoic acid hydrochloride] it was 50 to 400 nM. In the case of `COc1cccc([C@@H](C)NC(C)c2cc(-c3cccc(C(C)(C)C(=O)O)c3)c3ccccc3c2)c1` (stereo partly drawn) [Example 139, 2-(3-(3-(1-(((R)-1-(3-Methoxyphenyl)ethyl)amino)ethyl)naphthalen-1-yl)phenyl)-2-methylpropanoic acid hydrochloride] it was 50 to 400 nM; in that of `CCC(N[C@H](C)c1cccc(OC)c1)c1cc(-c2ccc(F)c(CCC(=O)O)c2)c2ccccc2c1` (stereo partly drawn) [Example 140, 3-(2-Fluoro-5-(3-(1-(((R)-1-(3-methoxyphenyl)ethyl)amino)propyl)naphthalen-1-yl)phenyl)propanoic acid hydrochloride], 50 to 400 nM; in that of `CCOc1cccc([C@@H](C)NC(CC)c2cc(-c3ccc(F)c(CCC(=O)O)c3)c3ccccc3c2)c1` (stereo partly drawn) [Example 141, 3-(5-(3-(1-(((R)-1-(3-Ethoxyphenyl)ethyl)amino)propyl)naphthalen-1-yl)-2-fluorophenyl) propanoic acid hydrochloride], 20 to 50 nM. In the case of `CCOc1cccc([C@@H](C)NC(C)c2cc(-c3ccc(F)c(CCC(=O)O)c3)c3ccccc3c2)c1` (stereo partly drawn) [Example 142, 3-(5-(3-(1-(((R)-1-(3-Ethoxyphenyl)ethyl)amino)ethyl)naphthalen-1-yl)-2-fluorophenyl) propanoic acid hydrochloride] it was below 20 nM; in that of `CCOc1cccc([C@@H](C)NC(C)c2cc(-c3ccc(C)c(C(=O)O)c3)c3ccccc3c2)c1` (stereo partly drawn) [Example 143, 5-(3-(1-(((R)-1-(3-Ethoxyphenyl)ethyl)amino)ethyl)naphthalen-1-yl)-2-methylbenzoic acid hydrochloride], 20 to 50 nM; in that of `CC(N[C@H](C)c1cccc(Cl)c1)c1cc(-c2ccc(F)c(CCC(=O)O)c2)c2ccccc2c1` (stereo partly drawn) [Example 144, 3-(5-(3-(1-(((R)-1-(3-Chlorophenyl)ethyl)amino)ethyl)naphthalen-1-yl)-2-fluorophenyl)propanoic acid hydrochloride], 20 to 50 nM. Regarding `COc1cccc([C@@H](C)NC(C)c2cc(-c3ccc(C(F)(F)F)c(CCC(=O)O)c3)c3ccccc3c2)c1` (stereo partly drawn) [Example 145, 3-(5-(3-(1-(((R)-1-(3-Methoxyphenyl)ethyl)amino)ethyl)naphthalen-1-yl)-2-(trifluoromethyl)phenyl)propanoic acid hydrochloride], the EC50 is 50 to 400 nM. In the case of `CC(N[C@H](C)c1cccc(Cl)c1)c1cc(-c2ccc(C(F)(F)F)c(CCC(=O)O)c2)c2ccccc2c1` (stereo partly drawn) [Example 146, 3-(5-(3-(1-(((R)-1-(3-Chlorophenyl)ethyl)amino)ethyl)naphthalen-1-yl)-2-(trifluoromethyl)phenyl)propanoic acid hydrochloride] it was 50 to 400 nM; in that of `COc1cccc([C@@H](C)NC(C)c2cc(-c3cc(F)cc(CCC(=O)O)c3)c3cc(F)ccc3c2)c1` (stereo partly drawn) [Example 147, 3-(3-Fluoro-5-(7-fluoro-3-(1-(((R)-1-(3-methoxyphenyl)ethyl)amino)ethyl)naphthalen-1-yl)phenyl)propanoic acid hydrochloride], 50 to 400 nM. To `CCC(N[C@H](C)c1cccc(OC)c1)c1cc(-c2cc(F)cc(CCC(=O)O)c2)c2ccccc2c1` (stereo partly drawn) [Example 148, 3-(3-Fluoro-5-(3-(1-(((R)-1-(3-methoxyphenyl)ethyl)amino)propyl)naphthalen-1-yl)phenyl)propanoic acid hydrochloride] belongs 50 to 400 nM; to `CCC(N[C@H](C)c1cccc(OC)c1)c1cc(-c2ccc(C)c(C(=O)O)c2)c2ccccc2c1` (stereo partly drawn) [Example 149, 5-(3-(1-(((R)-1-(3-Methoxyphenyl)ethyl)amino)propyl)naphthalen-1-yl)-2-methylbenzoic acid hydrochloride], 50 to 400 nM. In the case of `COc1cc(C(=O)O)cc(-c2cc(C(C)N[C@H](C)c3cccc(OC)c3)cc3ccccc23)c1` (stereo partly drawn) [Example 150, 3-Methoxy-5-(3-(1-(((R)-1-(3-methoxyphenyl)ethyl)amino)ethyl)naphthalen-1-yl)benzoic acid hydrochloride] it was 50 to 400 nM. As for `COc1cccc([C@@H](C)NC(C)c2cc(-c3cc(F)cc(OC(C)(C)C(=O)O)c3)c3ccccc3c2)c1` (stereo partly drawn) [Example 151, 2-(3-Fluoro-5-(3-(1-(((R)-1-(3-methoxyphenyl)ethyl)amino)ethyl)naphthalen-1-yl)phenoxy)-2-methylpropanoic acid hydrochloride], the EC50 was 50 to 400 nM. With `CCC(N[C@H](C)c1cccc(Cl)c1)c1cc(-c2ccc(F)c(CCC(=O)O)c2)c2ccccc2c1` (stereo partly drawn) [Example 152, 3-(5-(3-(1-(((R)-1-(3-Chlorophenyl)ethyl)amino)propyl)naphthalen-1-yl)-2-fluorophenyl)propanoic acid hydrochloride], the EC50 was in the range of 50 to 400 nM. Consider `CCOc1cccc([C@@H](C)NC(C)c2cc(-c3ccc(C)c(CCC(=O)OC(C)C)c3)c3ccccc3c2)c1` (stereo partly drawn) [Example 154, Isopropyl 3-(5-(3-(1-(((R)-1-(3-ethoxyphenyl)ethyl)amino)ethyl)naphthalen-1-yl)-2-methylphenyl) propanoate hydrochloride], for which the EC50 was in the range of 50 to 400 nM. For the compound `COC(=O)c1cc(-c2cc(CN[C@H](C)c3cccc(OC)c3)cc3ccccc23)ccc1C` [Example 155, (R)-Methyl 5-(3-(((1-(3-methoxyphenyl)ethyl)amino)methyl)naphthalen-1-yl)-2-methylbenzoate hydrochloride], the EC50 was below 20 nM.

Take `CCOc1cccc([C@@H](C)NC(C)c2cc(-c3ccc(C)c(CCC(=O)O)c3)c3ccccc3c2)c1` (stereo partly drawn) [Example 157, 3-(5-(3-(1-(((R)-1-(3-Ethoxyphenyl)ethyl)amino)ethyl)naphthalen-1-yl)-2-methylphenyl) propanoic acid hydrochloride]: the EC50 was below 20 nM. With `CCOc1cccc([C@@H](C)NC(C)c2cc(-c3cc(F)cc(CCC(=O)O)c3)c3ccccc3c2)c1` (stereo partly drawn) [Example 158, 3-(3-(3-(1-(((R)-1-(3-Ethoxyphenyl)ethyl)amino)ethyl)naphthalen-1-yl)-5-fluorophenyl) propanoic acid hydrochloride], the EC50 is below 20 nM. To `CC(N[C@H](C)c1cccc(Cl)c1)c1cc(-c2ccc(S(C)(=O)=O)cc2)c2ccccc2c1` (stereo partly drawn) [Example 159, (1R)-1-(3-Chlorophenyl)-N-(1-(4-(4-(methylsulfonyl)phenyl)naphthalen-2-yl)ethyl)ethanamine hydrochloride] belongs 50 to 400 nM; to `COc1cccc([C@@H](C)NC(C)c2cc(-c3cc(F)cc(N4CCOCC4)c3)c3ccccc3c2)c1` (stereo partly drawn) [Example 161, 1-(4-(3-Fluoro-5-morpholinophenyl)naphthalen-2-yl)-N-((R)-1-(3-methoxyphenyl)ethyl)ethanamine hydrochloride], below 20 nM; to `COc1cccc([C@@H](C)NC(C)c2cc(-c3ccc(C(F)(F)F)cc3)c3ccc(F)cc3c2)c1` (stereo partly drawn) [Example 162, (1R)-1-(3-methoxyphenyl)-N-(1-(7-fluoro-4-(4-(trifluoromethyl)phenyl)naphthalen-2-yl)ethyl)ethanamine hydrochloride], below 20 nM.
